Results on twelve compounds are retold here after BindingDB's records for doi:10.1021/bi300490r (University of Pittsburgh, 2012).

Each structure is given as a SMILES string.

Assay [1] has as its target T1, DNA-(apurinic or apyrimidinic site) endonuclease (Homo sapiens, UniProt P27695). The assay can be described thus: Molecular Beacon Assay. The procedure:
A fluorescenc-based molecular beacon assay to measure APE-1 protein activity and inhibition was performed as described.

The target of assay [2] is T1, DNA-(apurinic or apyrimidinic site) endonuclease. The assay can be described thus: Gel-Based Assay. From the text:
In addition to the real-time fluorescence assay for studying inhibition of APE-1 activity, we also employed a gel-based assay to visualize and quantify repair activity of APE-1 and its inhibition.

T1 sequence (P27695 whole entry): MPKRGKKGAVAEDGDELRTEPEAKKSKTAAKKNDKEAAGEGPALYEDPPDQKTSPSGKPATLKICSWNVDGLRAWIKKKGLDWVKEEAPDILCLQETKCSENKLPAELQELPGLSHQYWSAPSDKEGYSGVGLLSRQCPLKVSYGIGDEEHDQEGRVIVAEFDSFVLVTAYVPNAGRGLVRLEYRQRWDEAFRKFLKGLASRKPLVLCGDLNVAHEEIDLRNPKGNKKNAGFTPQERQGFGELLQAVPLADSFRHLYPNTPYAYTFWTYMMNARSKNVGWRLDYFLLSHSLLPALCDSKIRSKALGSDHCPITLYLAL

For orientation: Ki means a measure of affinity in units of concentration, obtained from inhibition or displacement. The low end stands for tighter binding, the high end for weaker binding. In turn, `COc1ccc(C(Cc2ccccc2)/N=N/c2ccc([N+](=O)[O-])c([N+](=O)[O-])c2)cc1` (configuration not stated) [NSC131534, 11] displayed a Ki in assay [1] of 6.7 µM.

Broadly, the IC50 is the concentration at which inhibition is half-maximal. High values mean lower potency, low ones higher potency. As for `CCn1c2ccccc2c2cc(CN=Nc3cc(C)nc4cc5c(cc34)OCO5)ccc21` [NSC332395, 4], the affinity in assay [1] corresponds to a Ki of 0.12 µM. In addition, the concentration for half-maximal inhibition (IC50) in assay [2] is 4.1 µM.

As for `COc1cccc(CN=Nc2cc(C)nc3cc4c(cc23)OCO4)c1` [NSC332384, 2], in assay [1], the affinity corresponds to a Ki of 0.22 µM. Further, the IC50 in assay [2] was found to be 10.1 µM.

In the case of `Cc1cc(N=NCc2c(C)n(C)n(-c3ccccc3)c2=O)c2cc3c(cc2n1)OCO3` [NSC332396, 5], the inhibition constant (Ki) in assay [1] was 0.68 µM. The IC50 in assay [2] came out at 34.4 µM.

In turn, `O=C(O)C(CCCCNc1ccc([N+](=O)[O-])cc1[N+](=O)[O-])Nc1ccc([N+](=O)[O-])cc1[N+](=O)[O-]` (configuration not stated) [NSC89640, 9] gave a Ki in assay [1] of 13 µM.

As for `O=C(/C=C\c1ccc([N+](=O)[O-])cc1)NCCCCNC(=O)/C=C/c1ccc([N+](=O)[O-])cc1` [NSC107215, 10], the Ki in assay [1] worked out at 17 µM.

The compound `Cc1cc(N=NCc2ccc3c(c2)OCO3)c2cc3c(cc2n1)OCO3` [NSC332389, 3] came in with a Ki in assay [1] of 0.19 µM. Besides, in assay [2], the concentration for half-maximal inhibition (IC50) came to 2.9 µM.

Take `Cc1cc(N=NC(C)c2cn(C)n(-c3ccccc3)c2=O)c2cc3c(cc2n1)OCO3` (configuration not stated) [NSC332398, 1]: in assay [1], the inhibitory constant (Ki) stood at 0.18 µM. Also, in assay [2], the midpoint of inhibition, the IC50, lay at 4.4 µM.

Compound `O=C(CC(=Nc1ccccc1)C(=O)c1ccccc1)c1ccccc1` [NSC402686, 14] registered an inhibitory constant (Ki) in assay [1] of 37 µM.

Turning to `C/C(=N\Nc1cc(C)c2ccccc2n1)c1cn(C)n(-c2ccccc2)c1=O` [NSC332410, 8], in assay [2], the 50% inhibitory concentration (IC50) is > 100 µM.

In assay [1], `N=c1[nH]nc2nc(CC(=O)c3ccccc3[N+](=O)[O-])c(CC(=O)c3ccccc3[N+](=O)[O-])nn12` [NSC614430, 13] had a Ki of 4.9 µM.

For the compound `Cc1ccc2nc(C)cc(N=NC(C)c3cn(C)n(-c4ccccc4)c3=O)c2c1` (configuration not stated) [NSC300598, 7], the affinity in assay [1] corresponds to a Ki of 10.9 µM.
